Assays:
[1] = molecular target: T1, DGKζ (hDGKzeta(1-928)-N-His) (Homo sapiens, UniProt Q13574); experiment: In vitro DGK inhibition assay, DGKzeta ADP Glo (in house); format: biochemical; settings: 2 nM DGKζ, 50 μM ATP, 125 uM DLG in liposomes, 1 hour reaction
T1 construct: hDGKzeta(1-928)-N-His; His (N); made in house; host or cells: Sf21 insect cells (baculovirus)
Method in brief: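 Full-length His-tagged human DGKα (4 nM) or DGKζ (2 nM), expressed in Sf21 cells, phosphorylated 125 µM DLG in PS/PC liposomes with ATP at 25 µM (α) or 50 µM (ζ) for 1 h. ADP was measured by ADP-Glo luminescence. Compounds were tested as 11-point 1:3 series in 2% DMSO.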

[2] = molecular target: T2, DGKα (hDGKalpha(1-735)-N-His) (Homo sapiens, UniProt P23743); experiment: In vitro DGK inhibition assay, DGKalpha ADP Glo (in house); format: biochemical; settings: 4 nM DGKα, 25 μM ATP, 125 uM DLG in liposomes, 1 hour reaction
T2 construct: hDGKalpha(1-735)-N-His; His (N); made in house; host or cells: Sf21 insect cells (baculovirus)
T2 sequence (P23743 whole entry): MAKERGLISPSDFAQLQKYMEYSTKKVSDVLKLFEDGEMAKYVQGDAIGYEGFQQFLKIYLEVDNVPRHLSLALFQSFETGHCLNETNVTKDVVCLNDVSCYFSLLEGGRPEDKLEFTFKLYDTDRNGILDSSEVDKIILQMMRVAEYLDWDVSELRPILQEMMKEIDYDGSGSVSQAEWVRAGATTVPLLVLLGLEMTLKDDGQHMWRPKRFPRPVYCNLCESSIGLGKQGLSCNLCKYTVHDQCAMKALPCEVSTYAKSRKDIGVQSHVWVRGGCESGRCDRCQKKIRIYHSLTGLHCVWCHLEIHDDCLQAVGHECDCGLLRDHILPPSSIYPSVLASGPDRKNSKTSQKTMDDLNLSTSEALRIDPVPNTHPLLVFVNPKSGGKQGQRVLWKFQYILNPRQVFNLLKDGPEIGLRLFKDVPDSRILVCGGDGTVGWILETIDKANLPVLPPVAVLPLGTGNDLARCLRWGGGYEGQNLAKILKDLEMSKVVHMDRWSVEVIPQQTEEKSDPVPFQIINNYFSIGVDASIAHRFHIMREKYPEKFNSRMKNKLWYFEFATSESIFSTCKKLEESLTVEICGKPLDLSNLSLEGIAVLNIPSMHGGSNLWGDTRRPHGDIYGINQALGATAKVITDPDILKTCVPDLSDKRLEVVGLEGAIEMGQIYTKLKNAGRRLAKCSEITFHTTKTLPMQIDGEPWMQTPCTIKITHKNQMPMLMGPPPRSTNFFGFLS
Procedure: DGKα and ζ kinases use ATP to phosphorylate the substrate 1,2-dilauroyl-sn-glycerol (DLG, incorporated in the liposomes). ATP is converted to ADP as a result of this enzymatic reaction. After the kinase reaction, an ATP-depletion reagent is added to terminate the kinase reaction and deplete any remaining ATP, leaving only ADP. Second, a detection reagent is added to simultaneously convert ADP to ATP and allow the newly synthesized ATP to be converted to light using a coupled luciferase/luciferin reaction.
Full length DGKα and ζ were expressed in Sf21 insect cells by infecting the cells with the baculovirus stock at MOI of 2. Purification of both enzymes was performed as previously described by Takahashi et al., PeerJ, 2018 (Takahashi, D.; Sakane, F. Expression and purification of human diacylglycerol 5 kinase alpha from baculovirus-infected insect cells for structural studies. PeerJ2018, 6, No. e5449).
A concentrated liposome solution was prepared in assay buffer without DTT and BSA: 2 mM of DLG in 21 mM of total liposome (2 mM DLG/8 mM PS/11 mM PC). The reaction mixtures contain the assay buffer with a final DLG concentration of 125 uM ATP concentrations of 25 μM (for DGKA assay) or 50 μM (for DGKZ assay). The reactions were started by addition of DGK α and ζ kinases at 4 nM and 2 nM final concentrations, respectively. After 1 hour reaction, the amount of ADP formed was detected with the ADP-Glo kinase assay (Promega) according to the manufacturer instructions. Compounds were added in 11-points dose response, starting at […], 1:3 dilutions, with a final DMSO concentration of 2%. The multidrop combi was used as a liquid handler and luminescence was read with 0.5 s by the envision reader (PE).

[3] = test system: primary human T-cells; experiment: IL2 secretion measurements (24 h, CD3-stimulated T-cells, PBS counter screen); format: cell-based; settings: for Emax IL2 (% activation): CD3 condition, normalised to DMSO (neutral) and 20 μM reference compound A1 = 100%; for EC50: Homo sapiens, T-cell, CD3-stimulated primary human T-cells, IL2 secretion, fitted sigmoidal curve, read-out: Tcell IL2 CD3 EC50
Procedure: As readouts for T-cell activation, 1L2 secretion after 24 hours and proliferation after 5 days was measured. Increases in IL2 secretion and proliferation upon compound treatment were assessed as the % of the maximum of reference compound A1. WO 2016/139181 discloses reference compound A1 as example 70. As a counter screen and to make sure that no unwanted TCR-independent activation was triggered, PBS conditions were run for all compounds.
Expanded primary human T-cells were thawed and cultured in RPMI 1640 (Gibco, #61870-010)+5% human serum (HS, Sigma, #H3667)+1 mM Sodium Pyruvate (Gibco, #11360-039)+50 μM 2-mercaptoethanol (Gibco, #31350-010) and 1× Pen-Strep (Life Technologies, #15140122) medium at density of 2 Mio/ml for 3 hours in 5% CO2, 37° C. and 95% humidity. For coating of plates, […] or PBS++ with CD3 antibody (concentration depending on donor and determined by CD3 titrations) was added 100 μl/well to Poly-D Lysine coated 96-well plates. Plates were sealed and incubated at room temperature for 3 hours on a table-top rocking platform. After incubation, plates were washed once with PBS−− and filled with 40 μl/well culture medium only. Compounds were then added (see next section) to medium only plates. After 3 hours of culturing the T-cells, cells were filtered through a cell strainer (Miltenyi Biotech, #130-041-407), counted again and concentration was adjusted to 1.25 Mio/ml.
Cells were then seeded 80 μl/well to the 40 μl/well including dispensed compounds according to plate layout. By adding cells, compounds were further diluted 1:3, and resulting in 100 k cells/120 μl/well. After 24 hours 40 μl of supernatant was collected carefully from the top while not disturbing the cells and transferred into a round bottom 96 well plate. Collected and frozen supernatant was used for detection of IL2 using the IL-2 Human ProQuantum Immunoassay Kit (Invitrogen) or using the Human IL-2 ELISA Kit (Thermo Fisher).
Compounds were added in a 5 or 6 pt dose response with the Tecan D300e Digital Dispenser, all conditions 3 times more concentrated than the end-concentration, since cells are added afterwards (80 μl cells to 40 μl prepared medium with treatment). The DR was starting at 20 μM or 10 μM final top concentration and a dilution factor of 3.333. The positive control was the reference compound A1 that was added in a dose response as well, additionally to 3 wells of only 20 μM representing the positive stimulator control. All wells were normalized with DMSO to a final concentration of 0.6% (0.2% end-concentration).
The immunoassay is done following the manufacturer's manual (Invitrogen, #A35603). Additional information: For the immunoassay, MicroAmp™ EnduraPlate™ Optical 384-Well plates are used. Frozen supernatant is thawed and centrifuged for 5 minutes at 1000×g, both steps at 4° C. After centrifugation, required sample amount is taken from the top, and in a separate LightCycler V-bottom plate (working plate) diluted with assay dilution buffer, dilution factor depending on the PBS or CD3 condition but at least 1:3. IL-2 standard and blanks are prepared in the same V-bottom plate, standard with a range of 0.0128-5000 pg/ml (extended version). After preparation, 5 μl of sample dilutions or standard/blanks are transferred to the optical 384-well plate (assay plate) and the 10 μl reaction protocol is being followed. For measurement, the QuantStudio 12K Flex system is used. Raw data is extracted and IL-2 concentrations are calculated with the Thermo Fisher online app (apps.thermofisher.com/apps/proquantum).
ELISA is done following the manufacturer's manual (Thermo Fisher Scientific, #88-7025-88). Additional information: For the ELISA Nunc MaxiSorp 96 well plates are used. Frozen supernatant is thawed and centrifuged for 5 minutes at 1000×g, both steps at 4° C. […]

T1 sequence (Q13574 whole entry): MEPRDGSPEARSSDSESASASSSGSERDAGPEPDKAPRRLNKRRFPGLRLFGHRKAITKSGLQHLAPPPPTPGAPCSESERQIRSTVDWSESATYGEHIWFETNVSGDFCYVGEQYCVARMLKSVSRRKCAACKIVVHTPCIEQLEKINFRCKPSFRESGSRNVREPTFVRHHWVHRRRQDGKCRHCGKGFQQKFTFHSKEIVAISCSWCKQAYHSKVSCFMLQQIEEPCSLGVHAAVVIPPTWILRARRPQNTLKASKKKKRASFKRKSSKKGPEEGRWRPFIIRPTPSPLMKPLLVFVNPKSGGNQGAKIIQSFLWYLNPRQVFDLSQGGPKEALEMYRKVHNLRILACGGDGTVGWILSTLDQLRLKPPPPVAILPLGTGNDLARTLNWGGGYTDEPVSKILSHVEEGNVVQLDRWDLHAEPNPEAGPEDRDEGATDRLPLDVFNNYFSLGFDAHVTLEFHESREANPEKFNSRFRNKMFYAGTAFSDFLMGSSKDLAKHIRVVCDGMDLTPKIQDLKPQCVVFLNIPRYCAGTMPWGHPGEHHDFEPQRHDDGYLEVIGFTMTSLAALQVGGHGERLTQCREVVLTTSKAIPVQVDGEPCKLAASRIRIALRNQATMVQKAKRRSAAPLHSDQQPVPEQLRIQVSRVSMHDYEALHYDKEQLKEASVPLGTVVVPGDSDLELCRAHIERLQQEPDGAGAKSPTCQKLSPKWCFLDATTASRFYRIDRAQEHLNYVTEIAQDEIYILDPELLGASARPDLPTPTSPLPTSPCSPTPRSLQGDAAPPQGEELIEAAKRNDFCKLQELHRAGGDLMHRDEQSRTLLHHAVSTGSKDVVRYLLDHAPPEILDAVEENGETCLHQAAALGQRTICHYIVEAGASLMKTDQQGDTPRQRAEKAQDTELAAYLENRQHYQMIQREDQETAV

Which IC50 [1] does the source give for `CC1(Nc2nnc(-c3cc4c(cc3F)S(=O)(=O)C[C@H](N)C(=O)N4Cc3ccc(-c4noc(C(F)(F)F)n4)cc3)o2)CC(F)(F)C1` [Example 3, (3R)-3-amino-7-[5-[(3,3-difluoro-1-methyl-cyclobutyl)amino]-1,3,4-oxadiazol-2-yl]-8-fluoro-1,1-dioxo-5-[[4-[5-(trifluoromethyl)-1,2,4-oxadiazol-3-yl]phenyl]methyl]-2,3-dihydro-1λ^6,5-benzothiazepin-4-one] here?
Its IC50 is 1280 nM.

And the IC50 [2]?
Its IC50 is 10300 nM.

And the “Emax IL2 (% activation)” value [3]?
The value was 594 % activation.

And the EC50 [3]?
The EC50 was 213 nM.

What does the source list for `N[C@H]1CS(=O)(=O)c2cc(F)c(-c3nnc(N4CCOC5(CC5)C4)o3)cc2N(Cc2ccc(-c3noc(C(F)(F)F)n3)cc2)C1=O` [Example 4, (3R)-3-amino-8-fluoro-7-[5-(4-oxa-7-azaspiro[2.5]octan-7-yl)-1,3,4-oxadiazol-2-yl]-1,1-dioxo-5-[[4-[5-(trifluoromethyl)-1,2,4-oxadiazol-3-yl]phenyl]methyl]-2,3-dihydro-1λ^6,5-benzothiazepin-4-one]?
IC50 [1]: 127 nM; IC50 [2]: 3410 nM; Emax IL2 (% activation) [3]: 220 % activation; EC50 [3]: 207 nM

How did the IC50 [1] turn out when `N[C@H]1CS(=O)(=O)c2cc(F)c(-c3nnc(N4CCC(F)(F)CC4)o3)cc2N(Cc2ccc(-c3noc(C(F)(F)F)n3)cc2)C1=O` [Example 5, (3R)-3-amino-7-[5-(4,4-difluoro-1-piperidyl)-1,3,4-oxadiazol-2-yl]-8-fluoro-1,1-dioxo-5-[[4-[5-(trifluoromethyl)-1,2,4-oxadiazol-3-yl]phenyl]methyl]-2,3-dihydro-1λ^6,5-benzothiazepin-4-one] was run?
The IC50 was 68 nM.

What about the IC50 [2] of the same molecule?
Its IC50 is 635 nM.

And the “Emax IL2 (% activation)” value [3]?
Its value is 537 % activation.

What about the EC50 [3] of the same molecule?
The EC50 was 323 nM.

Which IC50 [1] does the source give for `COc1ccc(-c2ccc(CN3C(=O)[C@@H](N)CS(=O)(=O)c4cc(F)c(-c5noc(C6(N)COC6)n5)cc43)cc2)cc1` [Example 8, (3R)-3-amino-7-[5-(3-aminooxetan-3-yl)-1,2,4-oxadiazol-3-yl]-8-fluoro-5-[[4-(4-methoxyphenyl)phenyl]methyl]-1,1-dioxo-2,3-dihydro-1λ^6,5-benzothiazepin-4-one] here?
The IC50 was 137 nM.

And the IC50 [2]?
The IC50 was 7030 nM.

And the “Emax IL2 (% activation)” value [3]?
The value was 96 % activation.

What about the EC50 [3] of the same molecule?
The EC50 was 5600 nM.

What does the source list for `N[C@H]1CS(=O)(=O)c2cc(F)c(-c3noc(C4(N)COC4)n3)cc2N(Cc2ccc(-c3noc(C(F)(F)F)n3)cc2)C1=O` [Example 9, (3R)-3-amino-7-[5-(3-aminooxetan-3-yl)-1,2,4-oxadiazol-3-yl]-8-fluoro-1,1-dioxo-5-[[4-[5-(trifluoromethyl)-1,2,4-oxadiazol-3-yl]phenyl]methyl]-2,3-dihydro-1λ^6,5-benzothiazepin-4-one]?
IC50 [1]: 468 nM; IC50 [2]: 3290 nM; Emax IL2 (% activation) [3]: 558 % activation; EC50 [3]: 1100 nM

How did the IC50 [1] turn out when `N[C@H]1CS(=O)(=O)c2cc(F)c(-c3noc(C4(N)COC4)n3)cc2N(Cc2ccc(-c3ccc(C(F)(F)F)cn3)cc2)C1=O` [Example 10, (3R)-3-amino-7-[5-(3-aminooxetan-3-yl)-1,2,4-oxadiazol-3-yl]-8-fluoro-1,1-dioxo-5-[[4-[5-(trifluoromethyl)-2-pyridyl]phenyl]methyl]-2,3-dihydro-1λ^6,5-benzothiazepin-4-one] was run?
Its IC50 is 282 nM.

What about the IC50 [2] of the same molecule?
The IC50 was 5160 nM.

And the “Emax IL2 (% activation)” value [3]?
The value was 123 % activation.

What about the EC50 [3] of the same molecule?
Its EC50 is 9430 nM.

What does the source list for `N[C@H]1CS(=O)(=O)c2cc(F)c(-c3noc(N4CCOC5(CC5)C4)n3)cc2N(Cc2ccc(-c3ccc(C(F)(F)F)cc3)nc2)C1=O` [Example 11, (3R)-3-amino-8-fluoro-7-[5-(4-oxa-7-azaspiro[2.5]octan-7-yl)-1,2,4-oxadiazol-3-yl]-1,1-dioxo-5-[[6-[4-(trifluoromethyl)phenyl]-3-pyridyl]methyl]-2,3-dihydro-1λ^6,5-benzothiazepin-4-one]?
IC50 [1]: 690 nM; IC50 [2]: > 6250 nM; Emax IL2 (% activation) [3]: 64 % activation; EC50 [3]: 7700 nM

From patent US20260138976A1 (Hoffmann-La Roche Inc., priority 2022, published 2026)
